Experimental data reported in patent publication US7550469B2, “Heterocyclic amide derivatives and their use as dopamine D3 receptor ligands” (Aventis Pharmaceuticals Inc., priority 2001, dated 2009).
Like-named read-outs stand apart in the source and are kept apart here.

Target: T1, cloned human dopamine D3 receptors (Homo sapiens, UniProt P35462)
T1 construct: expressed in transfected cells; membrane homogenate
Assay: [N-Methyl-3H]Spiroperidol binding to cloned human dopamine D3 receptors (Protocol 1)
Procedure, shortened: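 Radioligand displacement with [N-methyl-3H]spiroperidol used a physiological-salt Tris buffer (0.05 M, pH 7.7; NaCl 120 mM, KCl 5 mM, CaCl2 2 mM, MgCl2 1 mM) and membranes of a high-expressing stable CHO clone carrying human D3. Total ligand concentration came from measured added CPM; 0.1% ascorbic acid was optional for oxidizable compounds.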

[1] = the 13th table, unit inferred, read-out: D3Ki

T1 sequence (P35462 whole entry): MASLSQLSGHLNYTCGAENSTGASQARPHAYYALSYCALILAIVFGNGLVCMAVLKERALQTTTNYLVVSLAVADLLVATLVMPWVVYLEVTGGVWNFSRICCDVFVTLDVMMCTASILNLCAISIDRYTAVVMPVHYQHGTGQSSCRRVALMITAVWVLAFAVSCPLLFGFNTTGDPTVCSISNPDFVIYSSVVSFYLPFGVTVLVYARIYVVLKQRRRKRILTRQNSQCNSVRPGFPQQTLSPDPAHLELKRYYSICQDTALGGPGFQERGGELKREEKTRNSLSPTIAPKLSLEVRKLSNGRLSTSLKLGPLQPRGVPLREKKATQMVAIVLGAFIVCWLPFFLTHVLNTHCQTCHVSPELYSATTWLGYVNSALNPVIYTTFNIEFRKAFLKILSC

| Ki (read-out: D3K1) | Ki [1] | Structure (SMILES) | also measured |
| --- | --- | --- | --- |
| 1.9 nM |  | O=C(NCCCCN1CCN(c2csc3cc(C(F)(F)F)ccc23)CC1)c1cc2ccccc2s1 [814238A] |  |
|  |  | O=C(NCCCCN1CCN(c2csc3cc(C(F)(F)F)ccc23)CC1)c1ccc(-c2ccccc2)cc1 [815547A] | Ki (Table 2, read-out: D3K1): 3.43 nM |
|  | 2.45 nM | O=C(NCCCCN1CCCN(c2csc3cc(F)ccc23)CC1)c1ccc2ccccc2c1 [822223G] |  |
|  | 1.07 nM | O=C(NCCCCN1CCCN(c2csc3cc(F)ccc23)CC1)c1cc2ccccc2s1 [822224G] |  |
|  | 0.066 nM | O=C(NCCCCN1CCCN(c2csc3cc(F)ccc23)CC1)c1ccco1 [S981843] |  |
| 12 nM |  | CCOc1ccc(C(=O)NCCCCN2CCN(c3csc4cc(C(F)(F)F)ccc34)CC2)cc1 [compound 815541] |  |
| 5.6 nM |  | O=C(NCCCCN1CCN(c2csc3cc(C(F)(F)F)ccc23)CC1)c1ccc(F)cc1F [compound 815542] |  |
| 1.7 nM |  | O=C(NCCCCN1CCN(c2csc3cc(C(F)(F)F)ccc23)CC1)c1ccc2c(c1)OCO2 [compound 815544] |  |
| 38.6 nM |  | CCCCOc1ccc(C(=O)NCCCCN2CCN(c3csc4cc(C(F)(F)F)ccc34)CC2)cc1 [compound 815545] |  |
| 49 nM |  | O=C(NCCCCN1CCN(c2csc3cc(C(F)(F)F)ccc23)CC1)c1sc2ccccc2c1Cl [compound 815546] |  |
| 1.6 nM |  | O=C(NCCCCN1CCN(c2csc3cc(C(F)(F)F)ccc23)CC1)c1ccc(Cl)cc1 [compound 815548] |  |
| 4.3 nM |  | O=C(NCCCCN1CCN(c2csc3cc(C(F)(F)F)ccc23)CC1)c1ccc(Br)cc1 [compound 815551] |  |
| 9.7 nM |  | COc1ccccc1C(=O)NCCCCN1CCN(c2csc3cc(C(F)(F)F)ccc23)CC1 [compound 815554] |  |
| 7 nM |  | O=C(NCCCCN1CCN(c2csc3cc(C(F)(F)F)ccc23)CC1)c1ccc(C(F)(F)F)cc1 [compound 815555] |  |
| 6.4 nM |  | O=C(NCCCCN1CCN(c2csc3cc(C(F)(F)F)ccc23)CC1)c1ccco1 [compound 815556] |  |
| 8.7 nM |  | O=C(NCCCCN1CCN(c2csc3cc(C(F)(F)F)ccc23)CC1)c1c(F)cccc1F [compound 815557] |  |
|  | 4.5 nM | O=C(NCCCCN1CCCN(c2csc3cc(F)ccc23)CC1)c1ccc(OC(F)(F)F)cc1 [compound 822152] |  |
|  | 5.3 nM | O=C(NCCCCN1CCCN(c2csc3cc(F)ccc23)CC1)c1cccc(F)c1 [compound 822154] |  |
|  | 1.4 nM | COc1ccccc1C(=O)NCCCCN1CCCN(c2csc3cc(F)ccc23)CC1 [compound 822157] |  |
|  | 10.5 nM | CC(C)(C)c1ccc(C(=O)NCCCCN2CCCN(c3csc4cc(F)ccc34)CC2)cc1 [compound 822198] |  |
